Patent US20250082600A1, “TREATING HAEMATOLOGICAL MALIGNANCIES BY MEANS OF SATRAPLATIN” (PHARMA& SCHWEIZ GMBH, priority 2022, published 2025)

What was measured:
[1] = test system: MTAP deficient cell lines; assay: Satraplatin IC50 plotted against MTAP status; assay type: cell-based, human
Procedure: (§1) Cell lines and reagents. All cell lines were cultured in appropriate media supplemented with 10-15% fetal bovine serum (Cat #FND500, ExCell Bio, China) at a temperature of 37° C., 5% CO2 and 95% humidity. Cell viability was measured using the CTG Luminescent Cell Viability Assay (Promega, Madison, WI, USA) by standard procedures as described below. Satraplatin was purchased from MedChemExpress (Shanghai, PRC) and cisplatin from Qilu Pharm (Jinan, Shandong, PRC), respectively. 1 mM stock solutions of both drugs were established for storage at −20° C. as previously described (5).
(§2) Determination of the half maximal inhibition concentration (IC50). Cells were harvested during the logarithmic growth period and cell numbers counted using Count-star (Inno-Alliance Biotech, USA). Cell density was adjusted to 4.44×10^4 cells/mL with the respective culture medium. […] The test plate was incubated for 72 h in the humidified incubator at 37° C. with 5% CO2, and then evaluated using CTG cell viability assay (Promega). […] Luminescence was recorded using EnVision Multi Label Reader (Perkin Elmer, Richmond, CA, USA).
(§3) Data Analysis. The data were analyzed and visualized using GraphPad Prism 5.0 (GraphPad Software, San Diego, CA, USA) and Think-Cell 11 (Think-Cell Software, Berlin, Germany). […] The absolute IC50 was calculated according to the dose-response curve generated by GraphPad Prism 5.0. […]

[2] = cited from earlier work
BCL2 expression = settings: cited from earlier work
OCI-LY3 cell line = assay: CTG cell viability assay, OCI-LY3; assay type: cell-based, human
Procedure: as §1, §2, §3

[3] = test system: hematological malignancies (n=44) cell lines; assay: CTG cell viability assay, hematological malignancy cell lines; assay type: cell-based, human
Procedure: as §1
as §2, with “medium. Then, 90 μL cell suspensions were added in triplicate to a 96-well plate with the final cell density of 4×10^3 cells/well.” for “medium.”, “(Promega). For that purpose, plates were equilibrated at room temperature for approximately 30 min. Then, 50 μL CTG reagent was added to each well.” for “(Promega).”
(§4) Data Analysis. The data were analyzed and visualized using GraphPad Prism 5.0 (GraphPad Software, San Diego, CA, USA) and Think-Cell 11 (Think-Cell Software, Berlin, Germany). […] The formula for calculating the cell survival rate was: Cell survival (%) at Cx=(Cx−M)/(N−M)×100%, Cx being the luminescence signal of cells cultured with any concentration of the test compound, M being the luminescence signal of the blank control (with no cells) and N being the vehicle control with culture medium containing 0.25% (v/v) dimethyl sulfoxide. The absolute IC50 was calculated according to the dose-response curve generated by GraphPad Prism 5.0. […]

DLBCL cell lines = assay: CTG cell viability assay, DLBCL cell lines; assay type: cell-based, human; settings: DLBCL and its respective cell lines
Procedure: as §1, §2, §3

CTCL cell line HUT78 = assay: CTG cell viability assay, HUT78; assay type: cell-based, human
Procedure: as §1, §2, §3

[4] = test system: lymphoma cell lines harboring gene copy number deletions in the 9p21 locus; assay: Satraplatin sensitivity versus DNA copy number deletion; assay type: cell-based, human; settings: MTAP/CDKN2A/CDKN2B/DMRTA1 deletions
Procedure: as §2, with “medium. Then, 90 μL cell suspensions were added in triplicate to a 96-well plate with the final cell density of 4×10^3 cells/well.” for “medium.”, “(Promega). For that purpose, plates were equilibrated at room temperature for approximately 30 min. Then, 50 μL CTG reagent was added to each well.” for “(Promega).”
as §4, with “sulfoxide.” for “sulfoxide. The absolute IC50 was calculated according to the dose-response curve generated by GraphPad Prism 5.0.”

66 cancer cell lines = assay: CTG cell viability assay, 66 cancer cell lines (AUC); assay type: cell-based, human; settings: for activity (AUC) in hematological malignancies compared to solid organ cancers: ANOVA p-value=2.3e-08
Procedure: as §1
as §2, with “medium. Then, 90 μL cell suspensions were added in triplicate to a 96-well plate with the final cell density of 4×10^3 cells/well.” for “medium.”, “(Promega). For that purpose, plates were equilibrated at room temperature for approximately 30 min. Then, 50 μL CTG reagent was added to each well.” for “(Promega).”
as §4

[5] = test system: hormone refractory prostate cancer patients (HRPC); settings: monotherapy; cited from earlier work
OCI-LY7 cells = assay: CTG cell viability assay, OCI-LY7; assay type: cell-based, human
Procedure: as §1, §2, §3

## CC(=O)[O][Pt]([NH2])([Cl])([Cl])([NH]C1CCCCC1)[O]C(C)=O [satraplatin, bis (acetato) ammine dichloro (cyclohexylamine) platinum (IV)]
[1]
  activity in MTAP deleted hematopoietic cell lines: high activity
[2]
  access to the cerebrospinal fluid: access the cerebrospinal fluid at sufficient dose levels
BCL2 expression
  effectiveness in contrast to oxaliplatin: significantly more effective
BCL2 expression; independently of P53 mutational status
  reduction of BCL2 expression: up to 13 fold
OCI-LY3 cell line
  cell killing: killed very efficiently
OCI-LY3 cell line; p-value of 0.0006
  activity compared with cisplatin: significantly more active than cisplatin
[3]; DLBCL, T-cell lymphoma, MCL, MM and Burkitt lymphoma cell lines
  activity grouped by histology: high activity
[3]; group of hematologic malignancies, 72 h, CTG
  IC50 values: low to sub micromolar levels
[3]; within the group of hematologic malignancies, p-value=0.009, FIG. 2
  activity compared with standard cisplatin: significantly more active
DLBCL cell lines
  IC50 values: low micromolar or even sub-molar
CTCL cell line HUT78
  IC50: low-micromolar
[4]
  activity on cell lines with 9p21 copy number deletions: more active
66 cancer cell lines
  activity (AUC) in hematological malignancies compared to solid organ cancers: significant higher activity in haematopoietic & lymphoid malignancies
66 cancer cell lines; listed as Satraplatin
  activity (AUC) in hematological malignancies compared to solid organ cancers: significantly more active in hematological malignancies
66 cancer cell lines; area under dose-response curve, 72 h, CTG, FIG. 1
  median AUC value across all tested cell lines: 2.35
[5]
  objective response rate: up to 31%
OCI-LY7 cells
  killing compared to cisplatin: significantly superior
